Results on six molecules are retold here after patent US10526352B2, “Tricyclic benzoxaborole compounds and uses thereof” (GlaxoSmithKline Intellectual Property (No.2) Limited, priority 2013, dated 2020).

The structures appear in SMILES notation. ≈ marks a conversion by molar mass, not a printed value. Read-outs that look alike come from different tables or passages of the source.

In data set [1] the test system is M. tuberculosis standard strain Mtb H37Rv. Description: MIC determination against mycobacteria (resazurin, Middlebrook 7H9). It is filed as cell-based, Mycobacterium tuberculosis. Conditions: read-out: Mtb H37Rv MIC (B).
Another data set relates to E. coli K12 tolC::Tn10. The experiment in a line: General antimicrobial activity assay (CLSI broth microdilution). It is filed as cell-based, Escherichia coli. Here is the method:
(§1) Whole-cell antimicrobial activity was determined by broth microdilution using the Clinical and Laboratory Standards Institute (CLSI) recommended procedure, Document M7-A7, “Methods for Dilution Susceptibility Tests for Bacteria that Grow Aerobically”.
In general terms: Dilution methods test growth across graded concentrations, often in twofold steps.

Another data set concerns E. coli K12. The description is as above. It is filed as cell-based, Escherichia coli. Here is the method: as §1
The subject of another data set is A. baumannii ATCC 17978. Description: General antimicrobial activity assay (CLSI broth microdilution). It counts as cell-based, Acinetobacter baumannii. Here is the method:
as §1

For another data set, the system named is P. aeruginosa PA01. The description is as above. It counts as cell-based, Pseudomonas aeruginosa. The method, then:
as §1

Data set [2] concerns M. tuberculosis clinical isolates. Description: MIC against clinical strains (BACTEC MGIT 960 System). The following applies: Mycobacterium tuberculosis. It is filed as cell-based.
A further data set deals with Mtb LeuRS (Mycobacterium tuberculosis, UniProt P9WFV1). Description: biochemical. Also on record: species or system M. tuberculosis.
Where [3] appears, read: Mycobacterium tuberculosis, H37RV.
Where [4] appears, read: HepG2 Tox50 (A) / Mtb H37Rv MIC (B).

Chain of Mtb LeuRS (P9WFV1 whole entry): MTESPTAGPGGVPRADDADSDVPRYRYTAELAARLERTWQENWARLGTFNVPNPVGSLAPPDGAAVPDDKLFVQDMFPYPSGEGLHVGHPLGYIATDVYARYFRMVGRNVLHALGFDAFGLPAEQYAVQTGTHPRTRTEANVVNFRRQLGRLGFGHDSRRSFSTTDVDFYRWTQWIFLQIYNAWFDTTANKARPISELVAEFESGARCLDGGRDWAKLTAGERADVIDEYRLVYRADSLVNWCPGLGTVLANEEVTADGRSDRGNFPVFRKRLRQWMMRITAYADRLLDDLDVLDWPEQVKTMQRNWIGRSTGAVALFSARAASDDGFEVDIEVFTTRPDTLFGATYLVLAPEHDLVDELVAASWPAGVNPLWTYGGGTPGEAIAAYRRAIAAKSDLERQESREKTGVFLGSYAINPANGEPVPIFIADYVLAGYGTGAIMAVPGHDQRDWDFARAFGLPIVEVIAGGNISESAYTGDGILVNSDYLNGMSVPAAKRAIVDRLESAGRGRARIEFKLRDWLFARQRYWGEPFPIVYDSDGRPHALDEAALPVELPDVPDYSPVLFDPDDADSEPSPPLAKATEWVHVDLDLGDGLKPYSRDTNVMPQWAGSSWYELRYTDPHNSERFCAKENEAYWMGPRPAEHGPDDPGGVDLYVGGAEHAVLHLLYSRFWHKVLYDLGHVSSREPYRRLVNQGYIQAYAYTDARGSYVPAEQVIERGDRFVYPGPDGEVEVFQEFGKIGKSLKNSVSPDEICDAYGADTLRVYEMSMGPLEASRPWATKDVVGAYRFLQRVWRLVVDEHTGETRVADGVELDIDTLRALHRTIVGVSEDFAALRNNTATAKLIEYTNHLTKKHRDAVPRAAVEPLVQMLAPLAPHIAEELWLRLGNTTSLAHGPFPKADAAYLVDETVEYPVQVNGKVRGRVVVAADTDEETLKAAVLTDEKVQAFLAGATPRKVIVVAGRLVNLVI

Turning to `CC1COc2ccc(Br)c3c2B(O1)OC3CN.Cl` (stereo not shown) [Example 8, (3-bromo-8-methyl-7,8-dihydro-2H-1,6,9-trioxa-9a-borabenzo[cd]azulen-2-yl)methanamine hydrochloride], in data set [1] (setting [3]), the MIC is 0.3 µM. For the same molecule, in the data set with E. coli K12 tolC::Tn10, the “MIC: E. coli K12 tolC::Tn10” value was above 64 µg/mL. In addition, the “MIC: E. coli K12” value in the data set on E. coli K12 is above 64 µg/mL. Further, in the data set with HepG2 cells, the “Selectivity Index (A/B)” value is given as above 167 and the “HepG2 cell 48 h Tox50 (A)” value is above 50 µM. For the same molecule, the “MIC: A. baumannii ATCC 17978” value against A. baumannii ATCC 17978 is above 64 µg/mL. Also, the “MIC: P. aeruginosa PA01” value with P. aeruginosa PA01 is above 64 µg/mL.
`CC1(C)COc2ccc(Cl)c3c2B(OC3CN)O1.Cl` (stereo not shown) [Example 11, (3-chloro-8,8-di methyl-7,8-dihydro-2H-1,6,9-trioxa-9a-borabenzo[cd]azulen-2-yl)methanamine Hydrochloride]: the MIC in data set [1] (setting [3]) turned out to be 0.27 µM. Besides, the “MIC: E. coli K12 tolC::Tn10” value with E. coli K12 tolC::Tn10 is above 64 µg/mL. Moreover, the “MIC: E. coli K12” value in the data set with E. coli K12 was above 64 µg/mL. Besides, in the data set on HepG2 cells, the “HepG2 cell 48 h Tox50 (A)” value is above 50 µM. Besides, the “Selectivity Index (A/B)” value with HepG2 cells (hydrochloride) is recorded as above 185. For the same molecule, the “MIC: A. baumannii ATCC 17978” value in the data set on A. baumannii ATCC 17978 is above 64 µg/mL. Also, the “MIC: P. aeruginosa PA01” value in the data set with P. aeruginosa PA01 was above 64 µg/mL.
Take `CC1(C)COc2cccc3c2B(OC3CN)O1` (stereo not shown) [Example C12-H, reference compound]: the MIC in data set [1] (setting [3]) was above 5 µM. In the data set with E. coli K12 tolC::Tn10, the “MIC: E. coli K12 tolC::Tn10” value came out at 2 µg/mL (≈ 8.58 µM). In addition, in the data set on E. coli K12, the “MIC: E. coli K12” value amounted to 4 µg/mL (≈ 17.2 µM). In addition, the “Selectivity Index (A/B)” value in the data set with HepG2 cells (setting [4]) is above 4.9. Further, the “HepG2 cell 48 h Tox50 (A)” value in the data set with HepG2 cells (human) stood at 24.5 µM. Further, the “MIC: A. baumannii ATCC 17978” value with A. baumannii ATCC 17978 was 4 µg/mL (≈ 17.2 µM). Further, the “MIC: P. aeruginosa PA01” value against P. aeruginosa PA01 is 16 µg/mL (≈ 68.6 µM).
Consider `Cl.NC[C@H]1OB2OCCOc3ccc(Br)c1c32` [Example 2, (S)-(3-bromo-7,8-dihydro-2H-1,6,9-trioxa-9a-borabenzo[cd]azulen-2-yl)methanamine hydrochloride], for which the MIC in data set [2] (for all of but 1 of the 40 clinical isolate strains tested) is below 1 µM; in data set [2] (read-out: measured MIC (breakdown), for 1 strain (EXAMPLE 2 and EXAMPLE 4), highest MIC), 0.16 µM; in data set [2] (read-out: measured MIC (breakdown), for 1 strain of 40 clinical isolates (EXAMPLE 2)) it was 0.04 µM; in data set [2] (read-out: measured MIC (breakdown), for 40 strains (EXAMPLE 2 and EXAMPLE 4)), 0.08 µM; in data set [2] (strain 137, sensitive clinical isolate) it was 0.08 µM; in data set [2] (strain 169, sensitive clinical isolate), 0.08 µM. For the same molecule, the MIC was 0.08 µM in data set [2] (strain 192, sensitive clinical isolate); 0.08 µM in data set [2] (strain 199, sensitive clinical isolate); 0.08 µM in data set [2] (strain 206, sensitive clinical isolate); 0.08 µM in data set [2] (strain 207, sensitive clinical isolate); 0.08 µM in data set [2] (strain 208, sensitive clinical isolate); 0.08 µM in data set [2] (strain 223, sensitive clinical isolate). Further, the MIC was 0.08 µM in data set [2] (strain 231, sensitive clinical isolate); 0.08 µM in data set [2] (strain 237, sensitive clinical isolate); 0.08 µM in data set [2] (strain 247, sensitive clinical isolate); 0.08 µM in data set [2] (strain 248, sensitive clinical isolate); 0.08 µM in data set [2] (strain 249, sensitive clinical isolate); 0.08 µM in data set [2] (strain 255, sensitive clinical isolate). Also, the MIC in data set [2] (strain 261, sensitive clinical isolate) amounted to 0.08 µM; in data set [2] (strain 265, sensitive clinical isolate) it was 0.08 µM; in data set [2] (strain 269, sensitive clinical isolate), 0.08 µM; in data set [2] (strain 281, sensitive clinical isolate), 0.08 µM; in data set [2] (strain 292, sensitive clinical isolate), 0.08 µM; in data set [2] (strain 314, sensitive clinical isolate), 0.08 µM. Besides, the MIC in data set [2] (strain 316, sensitive clinical isolate) stood at 0.08 µM; in data set [2] (strain 317, sensitive clinical isolate) it was 0.08 µM; in data set [2] (strain 322, sensitive clinical isolate), 0.08 µM; in data set [2] (strain 323, sensitive clinical isolate) it was 0.08 µM; in data set [2] (strain 324, sensitive clinical isolate), 0.08 µM; in data set [2] (strain 326, sensitive clinical isolate), 0.08 µM. Besides, the MIC in data set [2] (strain 327, sensitive clinical isolate) came to 0.08 µM; in data set [2] (strain 328, sensitive clinical isolate) it was 0.08 µM; in data set [2] (strain 329, sensitive clinical isolate), 0.08 µM; in data set [2] (strain 332, sensitive clinical isolate) it was 0.08 µM; in data set [2] (strain 333, sensitive clinical isolate) it was 0.08 µM; in data set [2] (strain 358, sensitive clinical isolate), 0.08 µM. Also, the MIC in data set [1] (setting [3]) was below 0.1 µM; in data set [1] (hydrochloride) it was 0.07 µM. For the same molecule, the “MIC: E. coli K12 tolC::Tn10” value against E. coli K12 tolC::Tn10 is 64 µg/mL. For the same molecule, the “MIC: E. coli K12” value against E. coli K12 stood at 64 µg/mL. Also, the “HepG2 cell 48 h Tox50 (A)” value with HepG2 cells is 292.4 µM. Moreover, in the data set on HepG2 cells (setting [4]), the “Selectivity Index (A/B)” value is listed as 4177. For the same molecule, in the data set on A. baumannii ATCC 17978, the “MIC: A. baumannii ATCC 17978” value amounted to 64 µg/mL. Besides, the “MIC: P. aeruginosa PA01” value against P. aeruginosa PA01 amounted to 64 µg/mL.
On to `C[C@]1(CO)COc2ccc(Br)c3c2B(OC3CN)O1` (stereo partly drawn) [Example 17, ((2S, 8S, or 2R, 8R)-2-(aminomethyl)-3-bromo-8-methyl-7,8-dihydro-2H-1,6,9-trioxa-9a-borabenzo[cd]azulen-8-yl)methanol], for which the MIC in data set [1] (setting [3]) is 0.925 µM (≈ 0.303 µg/mL). In addition, the “Selectivity Index (A/B)” value in the data set with HepG2 cells (setting [4]) is on record as above 50. Besides, in the data set on HepG2 cells (human), the “HepG2 cell 48 h Tox50 (A)” value was above 50 µM. Besides, at Mtb LeuRS, the IC50 is 1.97 µM.
On to `CC1(C)COc2c(Cl)ccc3c2B(O[C@@H]3CN)O1` [Example C13-Cl, reference compound], for which the MIC in data set [1] (setting [3]) came to 5 µM (≈ 1.34 µg/mL). Moreover, the “Selectivity Index (A/B)” value in the data set on HepG2 cells (setting [4]) was above 10. Further, the “HepG2 cell 48 h Tox50 (A)” value in the data set on HepG2 cells (human) was above 50 µM. This molecule showed an IC50 on Mtb LeuRS of 2.16 µM.

Usually MIC stands for the lowest concentration that inhibits growth of the organism. A word on the IC50: it is the concentration at which inhibition is half-maximal.
